Assay results as given in patent US20190263796A1, “LIM KINASE INHIBITORS, PHARMACEUTICAL COMPOSITION AND METHOD OF USE IN LIMK-MEDIATED DISEASES” (CELLIPSE, priority 2016, published 2019).
Read-outs that look alike come from different tables or passages of the source.

Columns and labels:
[1] = molecular target: B-Raf(h) (Homo sapiens, UniProt P15056); test: B-Raf kinase assay (Eurofins Panlabs, radiometric); assay type: biochemical; set-up: purchased Eurofins Panlabs Inc. (contract assay service)
Experimental: IC50 B-Raf is then determined.
Selectivity ratios are calculated by dividing the IC50 B-Raf (nM) by the IC50 LIMK1 (nM).

[2] = system: P-MEK/Total MEK; test: Western blot MEK1 phosphorylation, MOLM-14; assay type: cell-based; details: for IC50: 2 h; for Selectivity ratio: IC50 P-MEK/Total MEK divided by IC50 Phospho-Ser3-Cofilin/Total Cofilin
Experimental: (§1) MOLM-14 cell line was originally purchased from the American Type Culture Collection (ATCC). MOLM-14 cells are cultured in MEM alpha 10% (v/v) FBS supplemented with 100 U/mL^−1 penicillin, 0.1 mg·mL^−1 streptomycin (PAN Biotech P06-07100). Cells were maintained at 37° C. with 5% CO2.
(§2) In a 6 wells plate (Falcon 353046), 2·10^6 cells in 1.5 mL medium are treated for 2 h with compounds. Cells are then collected and cell lysis is performed at 4° C. using RIPA buffer supplemented with protease inhibitors cocktail (Sigma-Aldrich P8340) and phosphatase inhibitors cocktail (Sigma-Aldrich P5726). Following centrifugation 30 min 15000 g 4° C., supernatants are mixed with Laemmli buffer and denaturation is performed by heating 5 min 95° C. 10 μL of samples are subjected to electrophoresis on 15% SDS-PAGE. After electro-transfer (Mini Transblot, Bio-Rad), the PVDF membrane (Merck-Millipore Immobilon P IPVH00010) is blocked with Tris Buffered Saline, pH 7.4 (TBS) with 0.1% Tween 20 and 5% BSA for 1 h at room temperature under agitation. The membrane was rinsed 3 times 10 min at room temperature under agitation with TBS, 0.1% Tween-20 (TBST) and then 1 h at room temperature with anti-phospho-Ser218/222-MEK1 (Merck-Millipore 07-461, 1/1000 dilution) antibody or anti-MEK1 (Merck-Millipore 07-641, 1/1000 dilution) diluted in TBS, 0.1% Tween 20 and 1% BSA. The membrane is then rinsed 3 times 10 min RT under agitation in TBST and incubated for 1 h with anti-rabbit secondary antibody, horseradish peroxidase conjugated (Jackson Immunoresearch #711-036-152) under agitation at room temperature. After three washes 10 min at room temperature in TBST, the detection of total or phosphorylated cofilin was performed using chemiluminescence kit ECL™ Plus (GE Healthcare RPN2132). For each concentration of compound, ratio between phosphorylated cofilin and total cofilin is determined. This ratio is then expressed as percentage of control ratio (i.e., ratio from DMSO treated cells). IC50 P-MEK/Total MEK is then determined.
(§3) Selectivity ratios are calculated by dividing the IC50 P-MEK/Total MEK value (μM) by the IC50 Phospho-Ser3-Cofilin/Total Cofilin value (μM).

[3] = system: Phospho-Ser3-Cofilin/Total Cofilin; test: Western blot cofilin phosphorylation, MOLM-14; assay type: cell-based; details: MOLM-14 cells, 2 h
Experimental: as §1
as §2, with “1 h RT under agitation.” for “1 h at room temperature under agitation.”, “temperature with anti-phospho-Ser3-cofilin (Cell Signaling Technology #3313, 1/1000 dilution)” for “temperature with anti-phospho-Ser218/222-MEK1 (Merck-Millipore 07-461, 1/1000 dilution)”, “antibody or anti-cofilin (Cell Signaling Technology #3312, 1/1000 dilution)” for “antibody or anti-MEK1 (Merck-Millipore 07-641, 1/1000 dilution)”, “10 min at room temperature under agitation” for “10 min RT under agitation”, “cells). IC50 Phospho-Ser3-Cofilin/Total Cofilin is then” for “cells). IC50 P-MEK/Total MEK is then”

[4] = system: P-MEK/Total MEK; test: Western blot MEK1 phosphorylation, K-562; assay type: cell-based; details: for IC50: Homo sapiens, read-out: IC50 P-MEK/Total MEK; for Selectivity ratio: IC50 P-MEK/Total MEK divided by IC50 Phospho-Ser3-Cofilin/Total Cofilin
Experimental: (§4) K-562 cell line was originally purchased from the Leibniz-Institut Deutsche Sammlung von Mikroorganismen und Zellkulturen GmbH (DSMZ). K-562 cells are cultured in RPMI 1640 10% (v/v) FBS supplemented with 100 U/mL^−1 penicillin, 0.1 mg·mL^−1 streptomycin (PAN Biotech P06-07100). Cells were maintained at 37° C. with 5% CO2.
as §2, §3

[5] = system: Phospho-Ser3-Cofilin/Total Cofilin; test: Western blot cofilin phosphorylation, K-562; assay type: cell-based; details: Homo sapiens; K562 cells; 2 h
Experimental: as §4
as §2, with “1 h RT under agitation.” for “1 h at room temperature under agitation.”, “temperature with anti-phospho-Ser3-cofilin (Cell Signaling Technology #3313, 1/1000 dilution)” for “temperature with anti-phospho-Ser218/222-MEK1 (Merck-Millipore 07-461, 1/1000 dilution)”, “antibody or anti-cofilin (Cell Signaling Technology #3312, 1/1000 dilution)” for “antibody or anti-MEK1 (Merck-Millipore 07-641, 1/1000 dilution)”, “10 min at room temperature under agitation” for “10 min RT under agitation”, “cells). IC50 Phospho-Ser3-Cofilin/Total Cofilin is then” for “cells). IC50 P-MEK/Total MEK is then”

[6] = system: MV4-11 cells; test: Cell proliferation assay (PrestoBlue), MV4-11; assay type: cell-based; details: Homo sapiens, 48 h
Experimental: as §1, with “MV4-11” for “MOLM-14”, “RPMI 1640” for “MEM alpha”, “P06-07100) and 2 mM Glutamine (Sigma-Aldrich 59202C).” for “P06-07100).”
The assay was performed in 96 wells microplate (Greiner Bioone 655090). MV4-11 cells are seeded at 5,000 cells per well. Compounds (or equivalent amounts of DMSO) are then added and cells are allowed to grow for 48 h. Proliferation is evaluated using PrestoBlue assay according to manufacturer recommendations. Results are expressed as GI50 (Growth Inhibition 50%: concentration at which proliferation is inhibited of 50%) in comparison to DMSO controls.

[7] = 120 μM ATP, Table 8, read-out: IC50 B-Raf
[8] = IC50 B-Raf (nM) divided by IC50 LIMK1 (nM), Table 8

Sequence of B-Raf(h) (P15056 whole entry): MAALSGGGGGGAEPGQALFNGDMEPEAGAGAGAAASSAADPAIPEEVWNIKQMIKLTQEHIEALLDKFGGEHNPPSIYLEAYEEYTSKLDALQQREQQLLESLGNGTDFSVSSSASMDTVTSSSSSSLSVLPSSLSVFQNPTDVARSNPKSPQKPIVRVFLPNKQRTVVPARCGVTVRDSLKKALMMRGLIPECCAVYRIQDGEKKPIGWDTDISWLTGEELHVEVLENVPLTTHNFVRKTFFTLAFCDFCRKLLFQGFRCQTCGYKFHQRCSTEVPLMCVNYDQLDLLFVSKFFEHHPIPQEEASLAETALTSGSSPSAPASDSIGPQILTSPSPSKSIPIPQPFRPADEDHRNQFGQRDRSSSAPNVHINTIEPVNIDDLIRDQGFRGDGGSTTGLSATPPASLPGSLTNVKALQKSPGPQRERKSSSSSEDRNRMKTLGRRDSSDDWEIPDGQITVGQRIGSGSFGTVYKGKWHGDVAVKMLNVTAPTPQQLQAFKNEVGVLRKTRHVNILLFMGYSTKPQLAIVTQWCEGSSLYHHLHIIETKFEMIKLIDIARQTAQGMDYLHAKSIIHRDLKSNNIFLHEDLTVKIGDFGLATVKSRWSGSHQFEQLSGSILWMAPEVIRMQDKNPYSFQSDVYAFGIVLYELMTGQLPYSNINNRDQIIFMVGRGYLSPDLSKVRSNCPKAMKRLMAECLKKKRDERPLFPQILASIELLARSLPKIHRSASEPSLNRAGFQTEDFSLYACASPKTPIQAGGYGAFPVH

IC50 ([2]; MOLM-14 cells, read-out: IC50 P-MEK/Total MEK) | IC50 [3] | IC50 ([4]; K562 cells, 2 h) | IC50 ([2]; Homo sapiens, MOLM-14 cells, read-out: IC50 P-MEK/Total MEK) | SMILES | IC50 [1, 7] | Selectivity ratio [1, 8] | Selectivity ratio ([2]; MOLM-14 cells) | IC50 ([4]; K562, 2 h) | IC50 [5] | IC50 ([2]; read-out: IC50 P-MEK/Total MEK, MOLM-14 cells) | IC50 ([3]; Homo sapiens) | GI50 [6] | Selectivity ratio ([4]; K562 cells) | selectivity ratio for LIMK1 over B-Raf ([1]; IC50 B-Raf (nM) divided by IC50 LIMK1 (nM)) | IC50 ([1]; IC50 B-Raf, 120 μM ATP, Table 8) | IC50 ([1]; IC50 B-Raf, Table 5) | IC50 ([2]; Homo sapiens, MOLM-14, 2 h, read-out: IC50 P-MEK/Total MEK, MOLM-14 cells)
> 1 µM | < 0.2 µM | – | – | O=S(=O)(Nc1cccc(-c2nc(CCO)sc2-c2ccnc(Nc3ccccc3)n2)c1F)c1c(F)cccc1F [8 (Na)] | 0.01 to 0.1 µM | 9 | 30 | – | – | – | – | – | – | – | – | – | –
– | – | – | – | CNC(=O)Cc1nc(-c2cccc(NS(=O)(=O)c3c(F)cccc3F)c2F)c(-c2ccnc(Nc3ccccc3)n2)s1 [Compound 9, 2-(4-(3-(2,6-difluorophenylsulfonamido)-2-fluorophenyl)-5-(2-(phenylamino)pyrimidin-4-yl)thiazol-2-yl)-N-methylacetamide] | 0.01 to 0.1 µM | – | – | > 1 µM | < 0.2 µM | > 1 µM | < 0.2 µM | 1 to 5 µM | – | – | – | – | –
– | – | 0.2 to 1 µM | > 1 µM | O=S(=O)(Nc1cccc(-c2nc(CCO)sc2-c2ccnc(Nc3ccccc3)n2)c1F)c1c(F)cccc1F [Compound 8, 2,6-difluoro-N-(2-fluoro-3-(2-(2-hydroxyethyl)-5-(2-(phenylamino)pyrimidin-4-yl)thiazol-4-yl)phenyl)benzenesulfonamide] | – | – | 100 | – | < 0.2 µM | – | < 0.2 µM | ≤ 1 µM | 20 | – | – | – | –
– | – | – | – | CC(C)(C)c1nc(-c2cccc(NS(=O)(=O)c3c(F)cccc3F)c2F)c(-c2ccnc(Nc3ccccc3)n2)s1 [Compound 1, N-(3-(2-(tert-butyl)-5-(2-(phenylamino)pyrimidin-4-yl)thiazol-4-yl)-2-fluorophenyl)-2,6-difluorobenzenesulfonamide] | – | 8 | 40 | > 1 µM | 0.2 to 1 µM | – | < 0.2 µM | ≤ 1 µM | 8 | about 20 | 0.01 to 0.1 µM | 0.5 to 5 µM | > 1 µM
